SMILES strings stand for the structures.

Series [1] concerns the target T1, ATP-dependent translocase ABCB1 (Homo sapiens, UniProt P08183). The series can be described thus: Reversal of human MDR1-mediated multidrug resistance in mouse L5178Y cells expressing MDR1 assessed as mean fluorescence intensity of rhodamine-123 uptake at 2 uM after 10 mins by flow cytometry. The format is cell-based.
Series [2] concerns the target T1, ATP-dependent translocase ABCB1. The series can be described thus: Reversal of human MDR1-mediated multidrug resistance in mouse L5178Y cells expressing MDR1 assessed as mean fluorescence intensity of rhodamine-123 uptake at 20 uM after 10 mins by flow cytometry. Format: cell-based. For orientation: In flow cytometry, cells or beads pass a laser one at a time.
Series [3] has as its system L5178Y. Put plainly: Antiproliferative activity against multidrug resistant mouse L5178Y cells expressing human MDR1 after 72 hrs by MTT assay. The format is functional. To be noted: read-out: ID50 (the source's name). Background: Tetrazolium assays rely on reduction of a dye to a coloured formazan, in cell work by metabolically active cells.
Series [4] concerns the target T1, ATP-dependent translocase ABCB1. Put plainly: Reversal of human MDR1-mediated multidrug resistance in mouse L5178Y cells expressing MDR1 assessed as fluorescence activity ratio at 2 uM after 10 mins by rhodamine-123 exclusion test. The format is cell-based.
In series [5] the test system is L5178Y. The series can be described thus: Antiproliferative activity against mouse L5178Y cells after 72 hrs by MTT assay. Format: functional. To be noted: read-out: ID50 (the source's name).
Series [6] concerns the target T1, ATP-dependent translocase ABCB1. The series can be described thus: Reversal of human MDR1-mediated multidrug resistance in mouse L5178Y cells expressing MDR1 assessed as fluorescence activity ratio at 20 uM after 10 mins by rhodamine-123 exclusion test. The format is cell-based.
Series [7] shares this target. To be noted: l5178y, 10 min, 22.2 µM.
Description: Reversal of human MDR1-mediated multidrug resistance in mouse L5178Y cells expressing MDR1 assessed as mean fluorescence intensity of rhodamine-123 uptake at 22.2 uM after 10 mins by flow cytometry

T1 sequence (P08183 whole entry): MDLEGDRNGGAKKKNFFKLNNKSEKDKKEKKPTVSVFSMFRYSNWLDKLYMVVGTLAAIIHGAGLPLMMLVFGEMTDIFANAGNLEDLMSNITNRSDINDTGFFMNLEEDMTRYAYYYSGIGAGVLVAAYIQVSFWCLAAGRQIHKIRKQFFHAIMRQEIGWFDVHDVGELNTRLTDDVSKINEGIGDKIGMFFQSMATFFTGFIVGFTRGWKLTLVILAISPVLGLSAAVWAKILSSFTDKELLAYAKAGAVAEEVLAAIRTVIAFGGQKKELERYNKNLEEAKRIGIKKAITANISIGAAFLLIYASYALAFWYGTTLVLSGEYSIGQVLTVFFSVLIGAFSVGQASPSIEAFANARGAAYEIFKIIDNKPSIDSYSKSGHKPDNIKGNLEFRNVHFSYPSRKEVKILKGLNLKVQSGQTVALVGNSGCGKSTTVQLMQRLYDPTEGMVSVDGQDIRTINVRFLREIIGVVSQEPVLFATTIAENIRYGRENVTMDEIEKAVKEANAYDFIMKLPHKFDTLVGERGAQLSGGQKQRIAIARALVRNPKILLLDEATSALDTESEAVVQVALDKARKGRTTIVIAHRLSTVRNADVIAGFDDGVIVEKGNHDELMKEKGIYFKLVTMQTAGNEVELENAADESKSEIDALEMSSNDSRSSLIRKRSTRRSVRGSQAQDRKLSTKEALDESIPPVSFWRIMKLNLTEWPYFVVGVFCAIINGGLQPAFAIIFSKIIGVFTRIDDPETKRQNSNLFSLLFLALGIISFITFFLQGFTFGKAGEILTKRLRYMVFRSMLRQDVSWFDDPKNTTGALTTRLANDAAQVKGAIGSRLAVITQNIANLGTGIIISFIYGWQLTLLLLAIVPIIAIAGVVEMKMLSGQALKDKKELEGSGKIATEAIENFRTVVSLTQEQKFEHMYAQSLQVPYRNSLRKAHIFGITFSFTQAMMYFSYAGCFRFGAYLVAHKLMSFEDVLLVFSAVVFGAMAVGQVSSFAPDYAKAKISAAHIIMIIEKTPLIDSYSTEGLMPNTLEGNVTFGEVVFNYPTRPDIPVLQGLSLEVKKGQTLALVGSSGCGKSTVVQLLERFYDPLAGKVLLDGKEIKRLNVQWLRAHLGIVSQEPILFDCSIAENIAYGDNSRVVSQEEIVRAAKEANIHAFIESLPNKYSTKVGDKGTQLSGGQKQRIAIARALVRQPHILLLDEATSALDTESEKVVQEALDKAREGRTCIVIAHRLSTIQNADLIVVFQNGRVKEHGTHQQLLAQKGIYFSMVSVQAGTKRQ

`Cc1cc2c([n-]c3ccccc32)c2[n+]1C(C)NCC2` (centres undefined) [TABERNINE A]: the Flu intensity in series [1] is recorded as 7.7; in series [2], 18.5. Moreover, the figures for the IC50 in the series with L5178Y [3] and in the series on L5178Y [5] were 37.5 µM and 45.9 µM, respectively. Also, the figures for the Ratio in series [4] and in series [6] were 0.72 and 1.73, respectively.

For the molecule `Cc1cc2c3ccccc3n3c2c(n1)CCNC3C` (centres undefined) [TEBERNINE B], the Activity in series [1] is recorded as 8.9; in series [2], 10.7. For the same molecule, the values for the IC50 in the series on L5178Y [3] and with L5178Y [5] were 39.7 µM and 46.6 µM, respectively. The Ratio was 0.78 in series [4] and 0.99 in series [6].

With `Cc1cc2c([nH]c3ccccc32)c(CCN)n1` [TEBERNINE C], the Activity was 8.4 in series [1] and 15.3 in series [2]. Also, the IC50 stood at 51.5 µM in the series on L5178Y [3] and 70.6 µM in the series with L5178Y [5]. Besides, the results for the Ratio in series [4] and in series [6] were 0.79 and 1.43, respectively.

`COc1ccc(CCN(C)CCCC(C#N)(c2ccc(OC)c(OC)c2)C(C)C)cc1OC` (centres undefined) [VERAPAMIL] had a Flu intensity in series [7] of 98.9.

The values are drawn from ChEMBL document CHEMBL1152951, “Tabernines A-C, beta-carbolines from the leaves of Tabernaemontana elegans” (J Nat Prod, 2009).
